Measured values from patent US11945806B2, “Stabilization of amyloidogenic immunoglobulin light chains” (The Scripps Research Institute, priority 2019, dated 2024).

Biological target: WIL-FL (Homo sapiens, UniProt P01721)
Test: Unlabeled LC Protease Sensitivity Assay (proteinase K)
Format: biochemical
Settings: small molecule 10 μM, WIL-FL 5 μM, proteinase K 50 nM, 2 hours at 37° C.
In short: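 WIL-FL light chain (5 μM) in PBS pH 7.4 + 0.02% Pluronic F-127 digested with proteinase K (50 nM) for 2 h at 37 °C with 10 μM compound (1% DMSO). Intact WIL-FL quantified by size-exclusion UPLC (A280). Fold protection = (A_compound−A_vehicle)/(A_no_protease−A_vehicle) from peak areas.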

| Compound | Protection (fold protection of LC from protease) |
| --- | --- |
| CCN(CC)c1ccc2c(C)c(CCN3C(=O)NC4(CCN(C(=O)c5cnc[nH]5)C4)C3=O)c(=O)oc2c1 (centres unmarked) [Compound 180, 3-(2-(7-(diethylamino)-4-methyl-2-oxo-2H-chromen-3-yl)ethyl)-7-(1H-imidazole-4-carbonyl)-1,3,7-triazaspiro[4.4]nonane-2,4-dione] | C (C ≥ 0.6) |
| CCN(CC)c1ccc2c(C)c(CCN3C(=O)NC4(CCN(C(=O)c5ncc[nH]5)C4)C3=O)c(=O)oc2c1 (centres unmarked) [Compound 181, 3-(2-(7-(diethylamino)-4-methyl-2-oxo-2H-chromen-3-yl)ethyl)-7-(1H-imidazole-2-carbonyl)-1,3,7-triazaspiro[4.4]nonane-2,4-dione] | C (C ≥ 0.6) |
| CCN(CC)c1ccc2c(C)c(CCN3C(=O)NC4(CCN(C(=O)c5ccc[nH]c5=O)C4)C3=O)c(=O)oc2c1 (centres unmarked) [Compound 182, 3-(2-(7-(diethylamino)-4-methyl-2-oxo-2H-chromen-3-yl)ethyl)-7-(2-oxo-1,2-dihydropyridine-3-carbonyl)-1,3,7-triazaspiro[4.4]nonane-2,4-dione] | B (3 ≤ B < 0.6) |
| Cc1c(CN2CCOCC2)c(=O)oc2cc(OCC(C)c3ccccc3)ccc12 (centres unmarked) [Compound 183, 4-methyl-3-(morpholinomethyl)-7-(2-phenylpropoxy)-2H-chromen-2-one] | B (3 ≤ B < 0.6) |
| Cc1c(CN2CCOCC2)c(=O)oc2cc(OC(C)Cc3ccccc3)ccc12 (centres unmarked) [Compound 184, 4-methyl-3-(morpholinomethyl)-7-((1-phenylpropan-2-yl)oxy)-2H-chromen-2-one] | A (A < 0.3)) |
| CCN(CC)c1ccc2c(C)c(CCN3C(=O)NC4(CCN(c5ncccn5)CC4)C3=O)c(=O)oc2c1 [Compound 185, 3-(2-(7-(diethylamino)-4-methyl-2-oxo-2H-chromen-3-yl)ethyl)-8-(pyrimidin-2-yl)-1,3,8-triazaspiro[4.5]decane-2,4-dione] | C (C ≥ 0.6) |
| CCN(CC)c1ccc2c(C)c(CCN3C(=O)NC4(CCN(c5ncc(C(F)(F)F)cn5)CC4)C3=O)c(=O)oc2c1 [Compound 186, 3-(2-(7-(diethylamino)-4-methyl-2-oxo-2H-chromen-3-yl)ethyl)-8-(5-(trifluoromethyl)pyrimidin-2-yl)-1,3,8-triazaspiro[4.5]decane-2,4-dione] | A (A < 0.3)) |
| CCN(CC)c1ccc2c(C)c(CCN3C(=O)NC4(CCN(c5ccc(C(F)(F)F)cn5)CC4)C3=O)c(=O)oc2c1 [Compound 187, 3-(2-(7-(diethylamino)-4-methyl-2-oxo-2H-chromen-3-yl)ethyl)-8-(5-(trifluoromethyl)pyridin-2-yl)-1,3,8-triazaspiro[4.5]decane-2,4-dione] | A (A < 0.3)) |
| CCN(CC)c1ccc2c(C)c(CCN3C(=O)NC4(CCN(c5ncnc6[nH]cnc56)CC4)C3=O)c(=O)oc2c1 [Compound 188, 3-(2-(7-(diethylamino)-4-methyl-2-oxo-2H-chromen-3-yl)ethyl)-8-(9H-purin-6-yl)-1,3,8-triazaspiro[4.5]decane-2,4-dione] | C (C ≥ 0.6) |
| CCN(CC)c1ccc2c(C)c(CCN3C(=O)NC4(CCN(c5ncc(C#N)cn5)CC4)C3=O)c(=O)oc2c1 [Compound 189, 2-(3-(2-(7-(diethylamino)-4-methyl-2-oxo-2H-chromen-3-yl)ethyl)-2,4-dioxo-1,3,8-triazaspiro[4.5]decan-8-yl)pyrimidine-5-carbonitrile] | A (A < 0.3)) |
| CCN(CC)c1ccc2c(C)c(CCN3C(=O)NC4(CCN(c5nccc(C#N)n5)CC4)C3=O)c(=O)oc2c1 [Compound 190, 2-(3-(2-(7-(diethylamino)-4-methyl-2-oxo-2H-chromen-3-yl)ethyl)-2,4-dioxo-1,3,8-triazaspiro[4.5]decan-8-yl)pyrimidine-4-carbonitrile] | C (C ≥ 0.6) |
| CCN(CC)c1ccc2c(C)c(CCN3C(=O)NC4(CCN(c5ccc(C#N)cn5)CC4)C3=O)c(=O)oc2c1 [Compound 191, 6-(3-(2-(7-(diethylamino)-4-methyl-2-oxo-2H-chromen-3-yl)ethyl)-2,4-dioxo-1,3,8-triazaspiro[4.5]decan-8-yl)nicotinonitrile] | A (A < 0.3)) |
| CCN(CC)c1ccc2c(C)c(CCN3C(=O)NC4(CCN(c5ncnc6[nH]ncc56)CC4)C3=O)c(=O)oc2c1 [Compound 192, 3-(2-(7-(diethylamino)-4-methyl-2-oxo-2H-chromen-3-yl)ethyl)-8-(1H-pyrazolo[3,4-d]pyrimidin-4-yl)-1,3,8-triazaspiro[4.5]decane-2,4-dione] | C (C ≥ 0.6) |
| CCN(CC)c1ccc2c(C)c(CCN3C(=O)NC4(CCN(c5ncccn5)C4)C3=O)c(=O)oc2c1 (centres unmarked) [Compound 194, 3-(2-(7-(diethylamino)-4-methyl-2-oxo-2H-chromen-3-yl)ethyl)-7-(pyrimidin-2-yl)-1,3,7-triazaspiro[4.4]nonane-2,4-dione] | C (C ≥ 0.6) |
| CCN(CC)c1ccc2c(C)c(CCN3C(=O)NC4(CCN(c5ncc(C(F)(F)F)cn5)C4)C3=O)c(=O)oc2c1 (centres unmarked) [Compound 195, 3-(2-(7-(diethylamino)-4-methyl-2-oxo-2H-chromen-3-yl)ethyl)-7-(5-(trifluoromethyl)pyrimidin-2-yl)-1,3,7-triazaspiro[4.4]nonane-2,4-dione] | A (A < 0.3)) |
| CCN(CC)c1ccc2c(C)c(CCN3C(=O)NC4(CCN(c5ccc(C(F)(F)F)cn5)C4)C3=O)c(=O)oc2c1 (centres unmarked) [Compound 196, 3-(2-(7-(diethylamino)-4-methyl-2-oxo-2H-chromen-3-yl)ethyl)-7-(5-(trifluoromethyl)pyridin-2-yl)-1,3,7-triazaspiro[4.4]nonane-2,4-dione] | A (A < 0.3)) |
| CCN(CC)c1ccc2c(C)c(CCN3C(=O)NC4(CCN(c5ncnc6[nH]cnc56)C4)C3=O)c(=O)oc2c1 (centres unmarked) [Compound 197, 3-(2-(7-(diethylamino)-4-methyl-2-oxo-2H-chromen-3-yl)ethyl)-7-(9H-purin-6-yl)-1,3,7-triazaspiro[4.4]nonane-2,4-dione] | C (C ≥ 0.6) |
| CCN(CC)c1ccc2c(C)c(CCN3C(=O)NC4(CCN(C(=O)c5ccc(C(N)=O)cc5)CC4)C3=O)c(=O)oc2c1 [Compound 198, 4-(3-(2-(7-(diethylamino)-4-methyl-2-oxo-2H-chromen-3-yl)ethyl)-2,4-dioxo-1,3,8-triazaspiro[4.5]decane-8-carbonyl)benzamide] | B (3 ≤ B < 0.6) |
| CCN(CC)c1ccc2c(C)c(CCN3C(=O)NC4(CCN(C(=O)c5ccc(C(N)=O)cc5)C4)C3=O)c(=O)oc2c1 (centres unmarked) [Compound 199, 4-(3-(2-(7-(diethylamino)-4-methyl-2-oxo-2H-chromen-3-yl)ethyl)-2,4-dioxo-1,3,7-triazaspiro[4.4]nonane-7-carbonyl)benzamide] | B (3 ≤ B < 0.6) |
| CCN(CC)c1ccc2c(C)c(CCN3C(=O)NC4(CCN(S(=O)(=O)c5ccccc5)CC4)C3=O)c(=O)oc2c1 [Compound 200, 3-(2-(7-(diethylamino)-4-methyl-2-oxo-2H-chromen-3-yl)ethyl)-8-(phenylsulfonyl)-1,3,8-triazaspiro[4.5]decane-2,4-dione] | A (A < 0.3)) |
